Numbered stars: 1 amine (or outer) side, 2 acyl side, 3 side chain; on linkers, the order of the positions; unused ones are H or OH. Bridge positions count the residues as written; N and C are the ends. Ends that are not written are not given here. Peptide text beside a SMILES is read from it. * marks the point of attachment. Perfluorobiphenyl(4,4') = Fc1c(F)c([*:1])c(F)c(F)c1-c1c(F)c(F)c([*:2])c(F)c1F; FITC = O=C1OC2(c3ccc(O)cc3Oc3cc(O)ccc32)c2ccc(NC(=S)*)cc21; Ahx = NCCCCCC(=O)O

One experiment relates to WT a-syn oligomers. In words: Split luciferase a-syn oligomer/aggregation assay. The experiment is classed as cell-based, human. To be noted: cells stably expressing split luciferase a-synuclein constructs; stapled peptides. On the procedure:
tet-off cells stably expressing split luciferase a-syn constructs were trypsinized from subconfluent culture and seeded in a 96-well plate at a density of 15,000 cells per well. Cells were incubated overnight at 37° C. in 5% CO2. […] After 6 h of incubation, 20 μL of cell medium was transferred to a black flat-bottomed 96-well plate. 50 μL of Working solution (Pierce Gaussia-Firefly Luciferase Dual Assay Kit, Thermo Scientific #16181) was added into each well containing cell medium. Immediately after adding the reagent, samples were read using a luminometer with a 480 nm filter.

Experiment [1] deals with HEK293 cells overexpressing WT or A53T a-syn. In words: Cell Titer-Glo cell viability assay in a-syn expressing cells. The experiment is classed as cell-based, human. On the technique in general: ATP-based viability assays read luminescence as a measure of living cells.
Experiment [2] shares this test system. The experiment is described as above. To be noted: HEK293 cells overexpressing WT or A53T a-syn, with or without MG132; expressed GFP-peptide or protein. The experiment is classed as cell-based, human. The procedure: Oligonucleotides encoding the specific peptides were synthesized and individually cloned into the pLJM1 nGFP lentiviral vector. Cells were infected with individual constructs, and cell viability was assessed using Cell Titer-Glo Luminescent assay (Promega) at 72 h post infection.
Cells were trypsinized from subconfluent cultures as described earlier, suspended in culture media, and then seeded into triplicate wells of a 96-well plate (100 μl well/1) at a density of 1.5×10^4 cells per well at standard culture conditions of 5% CO2 in air at 37° C. Cells were infected with lentivirus expressing peptide at an MOI of 5 for 72 h or transfected with plasmid for 72 h. Cell Titer-Glo reagent was added to each well (30 μL), according to the manufacturer's protocol and […].

A further experiment deals with A53T a-syn. As to the kind of experiment: a-syn protein levels by immunoblot in HEK293 cells. To be noted: HEK293 cells expressing A53T a-syn. The experiment is classed as cell-based, human. On the procedure:
Infected or transfected cells were scraped from 6-well dishes and lysed with lysis buffer (50 mM Tris-HCl pH7.4, 1% Nonidet P-40, 150 mM NaCl, 1 mM EDTA, 1× protease inhibitor mixture (Sigma)) for 30 min at 4° C. The insoluble pellet was removed following a 10,000 rpm spin for 5 minutes at 4° C. Lysates were analyzed by SDS-PAGE/immunoblot using 4-20% Mini-PROTEAN Tris-glycine gels (Bio-Rad) transferred to PVDF membranes and blocked in 5% milk containing PBS-Tween-20 (0.1%) for 1 h. PVDF membranes were then incubated with specified primary antibodies followed by incubation with horseradish peroxidase-conjugated secondary antibodies (Santa Cruz Biotechnology) and detected using enhanced chemiluminescence (GE Healthcare).
(In general: A western blot detects proteins with antibodies after separation by electrophoresis.)

Experiment [3] relates to a-syn oligomers in HEK293 cells. In words: Oligomers screen (split YFP-a-syn protein fragment complementation, FACS). The experiment is classed as cell-based, human. To be noted: for Reads GFP High: FACS fraction GFP High; for Reads GFP Inter: FACS fraction GFP Inter; for Reads GFP Neg: FACS fraction GFP Neg. An excerpt: To detect a-syn oligomers, a protein fragment complementation assay (PCA) of a-syn oligomerization in HEK293 cells (14) was used. In this assay, human A53T a-syn was fused to either the C- or N-terminal half of yellow fluorescent protein (YFP). No fluorescence is detectable while a-syn exists in monomers but, when a-syn oligomerizes, the two halves of YFP come in close enough proximity to form a functional, spontaneously fluorescent protein. […] By using fluorescence activated cell sorting (FACS), cells expressing Flag-tagged peptides that directly or indirectly interfered with a-syn oligomer formation were isolated and then the peptides were identified from genomic DNA (FIG. 1A). The screens yielded 10 hits (Table 1). The hit with the most reads (i.e., the most abundant) was the same peptide in all screens: IPIQLKA (SEQ ID NO: 1) (PDpep1) (Table 2). […] Lead peptide targets CHMP2B, a member of ESCRT-III
PCR primers that included the Illumina adaptor sequences were used to amplify peptide coding sequences recovered from selection and cell sorting. Results were demultiplexed, and peptide counts were tallied. After demultiplexing, only reads with an average quality Phred score of >30 were selected, and frequencies were calculated. Finally, the reads were then normalized to the total number of peptides read for that sample population, and a scalar factor was applied. In parallel, ˜25 individual colonies were Sanger sequenced to compare to the NGS data.
Lentiviruses were made in a 15 cm dish format by transfecting packaging cells (293T) with a three-plasmid system as previously described. Viral transduction of HEK293T cells, tet-off split luciferase a-syn cells, tet-off parent cells, and SH-SY5Y cells were performed with a multiplicity of infection of 0.3 (MOI=0.3). Infected cells were selected in puromycin-containing medium to eliminate uninfected cells and three aliquots of cells were collected for sampling of the initial (TO) cell population. Cells were treated with MG132 at concentrations of 0 μM, 10 μM, 25 μM or 50 μM. For the cell viability screen, surviving cells were collected and gDNA was extracted for identification of peptide inhibitors of cell toxicity. For the inhibition of a-syn aggregation screen, split YFP-a-syn constructs were transfected following stable expression of the peptides. Cells were sorted based on their GFP fluorescence intensities with a FACSVantage SE cell sorter (BD Bioscience).
Cells were harvested by trypsin treatment and centrifuged at 500×g for 5 minutes. The pellet was resuspended in ice-cold PBS and centrifuged again. The pellet was then resuspended at a concentration of 4×10^6 cells/ml in the sorting buffer, which is PBS containing 100 Kunitz Dnase l/ml, 10 μg/ml propidium iodide (Sigma) and 2% FBS. The sorting solution was also supplemented with either 10 μM forskolin, 100 μM 5,6-Dichlorobenzimidazole riboside (DRB, Sigma), 10 μM forskolin (Sigma) and 100 μM DRB or DMSO, as a control. The cells were then sent through a 40 μm filter to remove large clumps and loaded into either a FACScan Flow Cytometer (BD Bioscience) for cell analysis or a FACSVantage SE cell sorter (BD Bioscience) for cell sorting. The cells with positive propidium iodide staining (i.e., dead cells) were first eliminated from the analysis or sorting pool. For cell sorting, the desired population, either the most or least bright EGFP-positive cells, according to the purpose of the experiments (see Results), was sorted into either 15 ml conical tubes or 96-well plates, which both contained complete DMEM culture media.
Genomic DNA (gDNA) from peptide expressing cells at different time-points was extracted using QIAamp DNA Blood Mini Kit. PCR amplifications of peptides from gDNA in parallel with the lentiviral plasmid library (naïve library) were performed using indexed Illumina PCR primers to incorporate both the Illumina adapter sequences and indexing sequences. […]

The target of experiment [4] is T1, Charged multivesicular body protein 2B (CHMP2B), full length, purified (human, UniProt Q9UQN3 2-213).
T1 construct: mature; not shown: tag from the pET-DEST42 vector used for Ni-NTA purification
As to the kind of experiment: fluorescence polarization, 50 nM FITC-peptide, CHMP2B titrated.

Experiment [5] deals with T2, VPS4B, purified (His-tagged Sumo construct) (UniProt O75351 1-444).
T2 construct: also called Vacuolar Protein Sorting 4; not shown: His tag and Sumo (pRSet B vector)
T2 sequence (looked up): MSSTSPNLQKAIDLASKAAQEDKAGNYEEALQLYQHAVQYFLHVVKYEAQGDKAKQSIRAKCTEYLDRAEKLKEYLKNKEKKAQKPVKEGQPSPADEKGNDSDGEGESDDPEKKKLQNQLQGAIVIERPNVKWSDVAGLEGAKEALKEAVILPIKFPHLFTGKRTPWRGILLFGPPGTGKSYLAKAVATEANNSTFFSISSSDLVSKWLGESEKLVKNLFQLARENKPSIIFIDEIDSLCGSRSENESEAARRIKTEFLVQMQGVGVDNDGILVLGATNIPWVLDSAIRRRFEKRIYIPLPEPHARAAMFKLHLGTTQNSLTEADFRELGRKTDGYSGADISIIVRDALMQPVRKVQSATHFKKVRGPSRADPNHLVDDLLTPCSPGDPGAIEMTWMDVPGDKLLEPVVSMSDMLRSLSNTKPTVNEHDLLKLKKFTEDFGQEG
As to the kind of experiment: fluorescence polarization, FITC-peptide against VPS4B. For orientation: Polarisation of emitted light reports the rotation of a fluorescent probe.

Experiment [6] addresses T2, VPS4B, purified (His-tagged Sumo …). As to the kind of experiment: fluorescence polarization (FIG. 8).
Experiment [7] has as its target T1, Charged multivesicular body protein 2B …. As to the kind of experiment: fluorescence polarization.
The target in experiment [8] is T3, CHMP2B 1-199 truncation (human, UniProt Q9UQN3 1-199).
T3 construct: Tags and purification of the truncated protein are not described
As to the kind of experiment: fluorescence polarization.

Experiment [9] deals with T1, Charged multivesicular body protein 2B …. As to the kind of experiment: fluorescence polarization, FITC-labelled a-syn peptide, CHMP2B titrated.
Experiment [10] deals with T3, CHMP2B 1-199 truncation. As to the kind of experiment: fluorescence polarization, stapled peptide against truncated CHMP2B (1-199).
The target in experiment [11] is T1, Charged multivesicular body protein 2B …. As to the kind of experiment: fluorescence polarization, stapled peptide against full length CHMP2B.

T1 sequence (Q9UQN3 2-213): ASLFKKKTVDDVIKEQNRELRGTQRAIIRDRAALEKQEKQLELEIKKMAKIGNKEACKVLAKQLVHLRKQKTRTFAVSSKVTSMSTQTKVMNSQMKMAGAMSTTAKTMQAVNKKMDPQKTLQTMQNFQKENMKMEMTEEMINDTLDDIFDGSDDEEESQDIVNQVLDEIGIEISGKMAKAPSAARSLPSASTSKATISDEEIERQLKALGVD
T3 sequence (Q9UQN3 1-199 limits assumed): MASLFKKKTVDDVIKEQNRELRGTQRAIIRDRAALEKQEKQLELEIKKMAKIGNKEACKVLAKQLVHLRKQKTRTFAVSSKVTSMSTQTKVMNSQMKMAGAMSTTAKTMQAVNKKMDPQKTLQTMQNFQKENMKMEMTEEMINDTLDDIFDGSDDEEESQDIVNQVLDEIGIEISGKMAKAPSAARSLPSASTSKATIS

Take `CC[C@H](C)[C@H](NC(=O)[C@H](CCC(=O)O)NC(=O)[C@H](CCC(=O)O)NC(=O)[C@H](CC(=O)O)NC(=O)CCCCCNC(=S)Nc1ccc2c(c1)C(=O)OC21c2ccc(O)cc2Oc2cc(O)ccc21)C(=O)N[C@H]1CSc2c(F)c(F)c(c(F)c2F)-c2c(F)c(F)c(c(F)c2F)SC[C@@H](C(N)=O)NC(=O)[C@H](CC(C)C)NC(=O)[C@H](C)NC(=O)[C@H](CC(=O)O)NC(=O)[C@H](CC(C)C)NC(=O)[C@H](CCC(N)=O)NC(=O)[C@H](CCCNC(=N)N)NC1=O` ({FITC-Ahx}-DEEICRQLDALC-NH2; linker 5-12 via Perfluorobiphenyl(4,4'); N-terminus and C-terminus assumed): the “a-syn aggregation measured by luciferase activity” value in the experiment on WT a-syn oligomers is “significant reduction in a-syn aggregation”. In addition, in [1], the “A53T cell viability, stapled peptides incubated” value is reported as “increase in A53T cell viability”.
Consider “CHMP2B (1-178): shorter CHMP2B truncation (1-178) implicated in FTD”, for which the “cell viability / cytoprotective effect” value in [2] is recorded as “increased toxicity”.
As to “CHMP2B (1-199): truncated CHMP2B removing the MIM, residues 1-199”, the “cell viability / cytoprotective effect” value in [2] was “rescues toxicity”. For the same molecule, the “a-syn protein levels by immunoblot” value with A53T a-syn was “reduction in a-syn levels”.
Consider “DEEYCRQWKALC (cysteine staple) [stapled macrocycle; cysteines introduced at the locations to be stapled]”, for which the “a-syn aggregation measured by luciferase activity” value in the experiment with WT a-syn oligomers is listed as “significant reduction in a-syn aggregation”. Further, the “A53T cell viability, stapled peptides incubated” value in experiment [1] is listed as “increase in A53T cell viability”.
The like results for “DIEICFQLKALC (cysteine staple) [stapled macrocycle; cysteines introduced at the locations to be stapled]” were, in that order, “significant reduction in a-syn aggregation” and “increase in A53T cell viability”.
As to “NNQYSFV [7-mer library hit, oligomers screen]”, in experiment [3], the “Reads Ratio” value came out at 30.04, the “Reads GFP High” value was 1, the “Reads GFP Inter” value came to 0 and the “Reads GFP Neg” value came out at 58.
Consider “TQKRELT [7-mer library hit, oligomers screen]”, for which, in experiment [3], the “Reads Ratio” value was 35.64, the “Reads GFP High” value came out at 1, the “Reads GFP Inter” value came out at 0 and the “Reads GFP Neg” value turned out to be 69.
For the molecule “VYLDILG [7-mer library hit, oligomers screen]”, in experiment [3], the “Reads Ratio” value came out at 30.55, the “Reads GFP High” value turned out to be 1, the “Reads GFP Inter” value stood at 0 and the “Reads GFP Neg” value is 59.
On to “WPRYPHI [7-mer library hit, oligomers screen]”, for which, in experiment [3], the “Reads Ratio” value stood at 47.36, the “Reads GFP High” value was 1, the “Reads GFP Inter” value came out at 0 and the “Reads GFP Neg” value is 92.

B1: FITC-labeled PDpep1.3 peptide DEEIERQLKALG (peptide)
peptide: {FITC}-DEEIERQLKALG
notes: Synthetic peptide (LifeTein) with an N-terminal FITC moiety, used in the fluorescence polarization assays; also called DPpep1.3; FITC-Pdpep1.3
For B1, the dissociation constant (Kd) (usually a measure of binding affinity in units of concentration) in experiment [4] is 1800 nM; in experiment [5], about 200000 nM; in experiment [6], over 100000 nM.
As for {FITC}-DIEICFQLKALC (linker 5-12 via hexafluorobenzene (inferred), also called optimized macrocycle) [Stapled peptide DIEICFQLKALC], the binding result (in experiment [7]; with CHMP2B 1-199 truncation [8]) was “binds” in each case.
As to {FITC}-NEEGAPQEGILE [FITC-labelled a-syn peptide, amino acids 103-114 (NEEGAPQEGILE)], the Kd in experiment [9] was determined as 640 nM.
For {FITC}-DEEICRQLDALC (linker 5-12 via hexafluorobenzene (inferred), also called optimized macrocycle) [Stapled Pdpep1.4 variant DEEICRQLDALC], the values for the Kd (in the experiment with CHMP2B 1-199 truncation [10]; in experiment [11]) were 60 nM and 600 nM, respectively.

For the origin of these results see patent US20250051391A1, “PEPTIDE INHIBITORS AND METHODS FOR INHIBITING PROTEIN AGGREGATION IN NEURONS AND NEURODEGENERATIVE DISEASES” (THE GOVERNING COUNCIL OF THE UNIVERSITY OF TORONTO, priority 2021, published 2025).
